molecular target: T1, Cytochrome P450 2C23 (Rattus norvegicus, UniProt P24470); experiment: Inhibition of Cytochrome P450 epoxygenase in rat kidney microsomes; format: ADME
T1 sequence (P24470 whole entry): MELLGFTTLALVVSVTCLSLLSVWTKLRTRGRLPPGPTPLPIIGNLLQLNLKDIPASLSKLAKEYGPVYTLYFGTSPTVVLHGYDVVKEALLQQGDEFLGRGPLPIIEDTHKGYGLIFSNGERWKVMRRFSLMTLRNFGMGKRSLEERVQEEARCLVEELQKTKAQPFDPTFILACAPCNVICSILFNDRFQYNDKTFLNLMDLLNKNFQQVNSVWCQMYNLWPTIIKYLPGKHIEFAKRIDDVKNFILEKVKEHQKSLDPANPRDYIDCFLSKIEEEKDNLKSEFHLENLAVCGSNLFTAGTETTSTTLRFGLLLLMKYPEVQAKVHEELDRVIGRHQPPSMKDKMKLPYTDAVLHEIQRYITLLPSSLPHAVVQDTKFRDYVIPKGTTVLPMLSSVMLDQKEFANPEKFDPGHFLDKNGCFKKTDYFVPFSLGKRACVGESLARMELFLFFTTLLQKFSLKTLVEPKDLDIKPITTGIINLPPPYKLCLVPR

| Compound | IC50 |
| --- | --- |
| C#CC#CC(O)CCc1ccccc1-c1ccccc1CO (stereo not drawn) | 5 µM |
| COC(=O)CCCCCCCC=C(Br)Br | 6 µM |
| CS(=O)(=O)NC(=O)CCCCCCCC=C(Br)Br | 6 µM |

Source: ChEMBL document CHEMBL1129810, “Eicosanoid biosynthesis: differential inhibition of cytochrome P450 epoxygenase and -hydroxylase” (Bioorg Med Chem Lett, 1997)
